The target in this assay is N-terminal active peptide segment (MI-N899) of POLQ with ATPase activity (Homo sapiens (Human), UniProt O75417). Briefly: POLQ enzyme activity inhibition experiment (ATPase, NADH-coupled, OD 340 nm). In kind it is biochemical. The note with it: 100 nM POLQ (N), 100 μM ATP, 300 nM dT50. How it is done:
The Envision microplate reader from Perkin Elmer Inc was used to measure the reduction of OD value of NADH at 340 nm, thus reflecting the enzyme activity. Experimental method: The POLQ enzyme was diluted to 100 nM with a reaction buffer (20 mM Tris HCl (pH 7.80), 80 mM KCl, 10 mM MgCl2, 1 mM DTT, 0.01% w/v bovine serum albumin, 0.01% v/v Tween-20, and 5% v/v glycerol). The compounds to be tested were diluted to different concentrations in dimethyl sulfoxide (DMSO) using the Echo 650 pipetting system, and transferred to a 384-well plate, 20 μL/well of 100 nM POLQ was added, and the mixture was incubated at room temperature for 15 minutes. A reaction mixture solution was formulated, and the concentration of each component in the reaction mixture solution was: 100 μM ATP, 300 nM […], 300 μM NADH, 6 mM PEP, 10 U/mL lactate dehydrogenase and 20 U/mL pyruvate kinase. 20 μL/well of reaction mixture solution was added to start the enzyme reaction. […] The concentration range was from 10 μM to 0.0005 μM, and the final concentration of DMSO in the system was 0.2% v/v. The 384-well plate was reacted at room temperature for 20 minutes, and then the OD value at 340 nm was read with an Envision microplate reader. The inhibition rate was calculated, and XLfit software was used to perform fitting to obtain IC50 of the compounds. In the experiment, a blank group and a DMSO group were set up, respectively.

The structures appear in SMILES notation.

N-terminal active peptide segment (MI-N899) of POLQ with ATPase activity, sequence (O75417 1-899 limits assumed): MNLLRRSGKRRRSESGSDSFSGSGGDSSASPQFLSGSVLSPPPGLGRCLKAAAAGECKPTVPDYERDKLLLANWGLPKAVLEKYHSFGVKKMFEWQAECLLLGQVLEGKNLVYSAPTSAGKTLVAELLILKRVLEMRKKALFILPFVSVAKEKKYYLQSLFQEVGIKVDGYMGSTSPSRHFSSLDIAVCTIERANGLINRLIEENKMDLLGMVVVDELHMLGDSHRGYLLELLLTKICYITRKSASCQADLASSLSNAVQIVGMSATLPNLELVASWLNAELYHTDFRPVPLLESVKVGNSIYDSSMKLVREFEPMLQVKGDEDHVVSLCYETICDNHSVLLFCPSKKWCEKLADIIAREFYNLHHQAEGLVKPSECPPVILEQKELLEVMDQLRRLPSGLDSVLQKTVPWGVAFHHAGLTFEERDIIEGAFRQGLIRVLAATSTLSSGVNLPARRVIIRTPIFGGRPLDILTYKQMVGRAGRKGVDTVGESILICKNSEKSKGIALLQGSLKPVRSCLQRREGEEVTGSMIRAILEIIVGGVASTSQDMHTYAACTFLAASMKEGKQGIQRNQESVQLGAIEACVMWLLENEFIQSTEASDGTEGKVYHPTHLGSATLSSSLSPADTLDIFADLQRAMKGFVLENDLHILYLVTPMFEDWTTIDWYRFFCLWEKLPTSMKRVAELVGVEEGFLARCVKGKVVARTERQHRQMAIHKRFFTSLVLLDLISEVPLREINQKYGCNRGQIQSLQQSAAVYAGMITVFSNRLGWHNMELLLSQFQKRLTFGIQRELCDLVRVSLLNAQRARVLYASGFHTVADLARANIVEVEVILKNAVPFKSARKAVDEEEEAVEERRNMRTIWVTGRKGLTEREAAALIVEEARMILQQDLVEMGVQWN

A word on the IC50: it is the concentration that gives 50% inhibition. Low values mean inhibition by little substance, high ones a need for much substance. `COc1ccccc1-c1cnccc1C(=O)Nc1nc2ccc(-c3ccc(Cl)cc3)nc2s1` [Compound 1, N-(5-(4-chlorophenyl)thiazolo[5,4-b]pyridin-2-yl)-3-(2-methoxyphenyl)pyridine-4-carboxamide]: the concentration for half-maximal inhibition (IC50) lay within 100 to 500 nM. With `COc1ccccc1-c1cnccc1C(=O)Nc1nc2ncc(-c3ccc(Cl)cc3)nc2s1` [Compound 2, N-(6-(4-chlorophenyl)thiazolo[4,5-b]pyrazin-2-yl)-3-(2-methoxyphenyl)pyridine-4-carboxamide] the figure was below 100 nM; with `COc1cccc(F)c1-c1cnccc1C(=O)Nc1nc2ncc(-c3ccc(Cl)cc3)nc2s1` [Compound 3, N-(6-(4-chlorophenyl)thiazolo[4,5-b]pyrazin-2-yl)-3-(2-fluoro-6-methoxyphenyl)pyridine-4-carboxamide], below 100 nM; with `COc1ccccc1-c1cc(C)ncc1C(=O)Nc1nc2ncc(-c3ccc(Cl)cc3)nc2s1` [Compound 4], below 100 nM. The same measure for `COc1ccccc1-c1cnccc1C(=O)Nc1nc2ncc(-c3cccc(Cl)c3)nc2s1` [Compound 5, N-(6-(3-chlorophenyl)thiazolo[4,5-b]pyrazin-2-yl)-3-(2-methoxyphenyl)pyridine-4-carboxamide]: below 100 nM. The same measure for `COc1ccccc1-c1cnccc1C(=O)Nc1nc2ncc(-c3ccc(C)cc3)nc2s1` [Compound 6, 3-(2-methoxyphenyl)-N-(6-(4-methylphenyl)thiazolo[4,5-b]pyrazin-2-yl)pyridine-4-carboxamide]: below 100 nM; for `COc1ccc(-c2cnc3nc(NC(=O)c4ccncc4-c4ccccc4OC)sc3n2)cc1` [Compound 7, 3-(2-methoxyphenyl)-N-(6-(4-methoxyphenyl)thiazolo[4,5-b]pyrazin-2-yl)pyridine-4-carboxamide]: below 100 nM. In turn, `COc1ccccc1-c1cnccc1C(=O)Nc1nc2cnc(-c3ccc(Cl)cc3)nc2s1` [Compound 8, N-(5-(4-chlorophenyl)thiazolo[5,4-d]pyrimidin-2-yl)-3-(2-methoxyphenyl)pyridine-4-carboxamide] yielded a concentration for half-maximal inhibition (IC50) below 100 nM. With `COc1ccccc1-c1cnccc1C(=O)Nc1nc2ncc(-c3ccc(Cl)cc3)cc2s1` [Compound 10, N-(6-(4-chlorophenyl)thiazolo[4,5-b]pyridin-2-yl)-3-(2-methoxyphenyl)isonicotinamide] the figure was below 100 nM. With `COc1ccccc1-c1cnccc1C(=O)Nc1nc2ncc(-c3ccc(C#N)nc3)nc2s1` [Compound 11, N-(6-(6-cyanopyridin-3-yl)thiazolo[4,5-b]pyrazin-2-yl)-3-(2-methoxyphenyl)isonicotinamide] the figure was below 100 nM; with `COc1ccccc1-c1cnccc1C(=O)Nc1nc2ncc(-c3ccc(C#N)c(F)c3)nc2s1` [Compound 12, N-(6-(4-cyano-3-fluorophenyl)thiazolo[4,5-b]pyrazin-2-yl)-3-(2-methoxyphenyl)isonicotinamide], below 100 nM; with `COc1ccccc1-c1cnccc1C(=O)Nc1nc2ncc(-c3ccc(C#N)cc3F)nc2s1` [Compound 13, N-(6-(4-cyano-2-fluorophenyl)thiazolo[4,5-b]pyrazin-2-yl)-3-(2-methoxyphenyl)isonicotinamide], below 100 nM. Turning to `COc1cc(-c2cnc3nc(NC(=O)c4ccncc4-c4ccccc4OC)sc3n2)ccc1C#N` [Compound 14, N-(6-(4-cyano-3-methoxyphenyl)thiazolo[4,5-b]pyrazin-2-yl)-3-(2-methoxyphenyl)isonicotinamide], the IC50 is below 100 nM.

`COc1cc(C#N)ccc1-c1cnc2nc(NC(=O)c3ccncc3-c3ccccc3OC)sc2n1` [Compound 15, N-(6-(4-cyano-2-methoxyphenyl)thiazolo[4,5-b]pyrazin-2-yl)-3-(2-methoxyphenyl)isonicotinamide] displayed a concentration for half-maximal inhibition (IC50) below 100 nM. `COc1cccc(F)c1-c1cc(C#N)ncc1C(=O)Nc1nc2ncc(-c3ccc(Cl)cc3)nc2s1` [Compound 17, N-(6-(4-chlorophenyl)thiazolo[4,5-b]pyrazin-2-yl)-6-cyano-4-(2-fluoro-6-methoxyphenyl)nicotinamide]: the half-inhibitory concentration (IC50) was below 100 nM.

The molecule `N#Cc1cc(-c2ccccc2OC(F)F)c(C(=O)Nc2nc3ncc(-c4ccc(Cl)cc4)nc3s2)cn1` [Compound 18, N-(6-(4-chlorophenyl)thiazolo[4,5-b]pyrazin-2-yl)-6-cyano-4-(2-(difluoromethoxy)phenyl)nicotinamide] showed a 50% inhibitory concentration (IC50) below 100 nM. The same measure for `COc1ccccc1-c1cc(C#N)ncc1C(=O)Nc1nc2ncc(-c3ccc(=O)n(C)c3)nc2s1` [Compound 19, 6-cyano-4-(2-methoxyphenyl)-N-(6-(1-methyl-6-oxo-1,6-dihydropyridin-3-yl)thiazolo[4,5-b]pyrazin-2-yl)nicotinamide]: below 100 nM.

Consider `COc1ccc(C#N)cc1-c1cc(C)ncc1C(=O)Nc1nc2ncc(-c3ccc(C4CC4)cn3)nc2s1` [Compound 22, 4-(5-cyano-2-methoxyphenyl)-N-(6-(5-cyclopropylpyridin-2-yl)thiazolo[4,5-b]pyrazin-2-yl)-6-methylnicotinamide], for which the half-maximal inhibitory concentration (IC50) is below 100 nM. With `COc1ccccc1-c1cc(C#N)ncc1C(=O)Nc1nc2ncc(-c3ccc(Cl)cc3)nc2s1` [Compound 28, N-(6-(4-chlorophenyl)thiazolo[4,5-b]pyrazin-2-yl)-6-cyano-4-(2-methoxyphenyl)pyridine-3-carboxamide], the concentration for half-maximal inhibition (IC50) is below 100 nM.

As to `C#Cc1ccccc1-c1cnccc1C(=O)Nc1nc2ncc(-c3ccc(Cl)cc3)nc2s1` [Compound 29, N-(6-(4-chlorophenyl)thiazolo[4,5-b]pyrazin-2-yl)-3-(2-ethynylphenyl)pyridine-4-carboxamide], the IC50 was below 100 nM. `COc1ccccc1-c1cc(C)ncc1C(=O)Nc1nc2ncc(-c3ccc(C#N)cc3)nc2s1` [Compound 31, N-(6-(4-cyanophenyl)thiazolo[4,5-b]pyrazin-2-yl)-4-(2-methoxyphenyl)-6-methylpyridine-3-carboxamide] displayed an IC50 below 100 nM. With `COc1ccccc1-c1cc(C#N)ncc1C(=O)Nc1nc2ncc(-c3ccc(C#N)cc3)nc2s1` [Compound 35, 6-cyano-N-(6-(4-cyanophenyl)thiazolo[4,5-b]pyrazin-2-yl)-4-(2-methoxyphenyl)pyridine-3-carboxamide] the figure was below 100 nM. With `COc1ccccc1-c1cc(C(F)(F)F)ncc1C(=O)Nc1nc2ncc(-c3ccc(C#N)cc3)nc2s1` [Compound 36, N-(6-(4-cyanophenyl)thiazolo[4,5-b]pyrazin-2-yl)-4-(2-methoxyphenyl)-6-(trifluoromethyl)pyridine-3-carboxamide] the figure was below 100 nM; with `N#Cc1ccc(C(=O)Nc2nc3ncc(-c4ccc(Cl)cc4)nc3s2)c(-c2ccccc2C#N)c1` [Compound 37, N-(6-(4-chlorophenyl)thiazolo[4,5-b]pyrazin-2-yl)-2′,5-dicyano-[1,1′-biphenyl]-2-carboxamide], below 100 nM. The same measure for `C#Cc1ccccc1-c1cc(C#N)ncc1C(=O)Nc1nc2ncc(-c3ccc(Cl)cc3)nc2s1` [Compound 38, N-(6-(4-chlorophenyl)thiazolo[4,5-b]pyrazin-2-yl)-6-cyano-4-(2-ethynylphenyl)pyridine-3-carboxamide]: below 100 nM. The molecule `N#Cc1ccc(-c2cnc3nc(NC(=O)c4cnc(C#N)cc4N4CCOCC4)sc3n2)cc1` [Compound 39, 6-cyano-N-(6-(4-cyanophenyl)thiazolo[4,5-b]pyrazin-2-yl)-4-morpholinopyridine-3-carboxamide] yielded an IC50 below 100 nM. `COc1cc(C#N)ccc1-c1cnccc1C(=O)Nc1nc2ncc(-c3ccc(C#N)cc3)nc2s1` [Compound 40, 3-(4-cyano-2-methoxyphenyl)-N-(6-(4-cyanophenyl)thiazolo[4,5-b]pyrazin-2-yl)pyridine-4-carboxamide] had a half-maximal inhibitory concentration (IC50) below 100 nM. `COc1ccccc1-c1cn2ccnc2cc1C(=O)Nc1nc2ncc(-c3ccc(C#N)cc3)nc2s1` [Compound 41, N-(6-(4-cyanophenyl)thiazolo[4,5-b]pyrazin-2-yl)-6-(2-methoxyphenyl)imidazo[1,2-a]pyridine-7-carboxamide]: the concentration for half-maximal inhibition (IC50) was below 100 nM. The same measure for `C#Cc1ccccc1-c1cc(Cl)ncc1C(=O)Nc1nc2ncc(-c3ccc(C#N)cc3)nc2s1` [Compound 43, 6-chloro-N-(6-(4-cyanophenyl)thiazolo[4,5-b]pyrazin-2-yl)-4-(2-ethynylphenyl)pyridine-3-carboxamide]: below 100 nM. The same measure for `COc1ncccc1-c1cc(C)ncc1C(=O)Nc1nc2ncc(-c3ccc(C#N)cc3)nc2s1` [Compound 44, N-(6-(4-cyanophenyl)thiazolo[4,5-b]pyrazin-2-yl)-2-methoxy-6′-methyl-[3,4′-bipyridine]-3′-carboxamide]: below 100 nM; for `COc1cnccc1-c1cc(C)ncc1C(=O)Nc1nc2ncc(-c3ccc(C#N)cc3)nc2s1` [Compound 45, N-(6-(4-cyanophenyl)thiazolo[4,5-b]pyrazin-2-yl)-3′-methoxy-6-methyl-[4,4′-bipyridine]-3-carboxamide]: below 100 nM.

Values taken from US20250122221A1 (NANJING ZAIMING PHARMACEUTICAL CO., LTD., priority 2022, published 2025).
